The values below are quoted from earlier work in patent US20030207327A1, “Coisogenic eukaryotic cell collections” (priority 2001, published 2003).

In data set [1] the target is T1, TPMT (thiopurine S-methyltransferase) (Homo sapiens, UniProt P51580, R215H).
T1 sequence (P51580 1-245 R215H): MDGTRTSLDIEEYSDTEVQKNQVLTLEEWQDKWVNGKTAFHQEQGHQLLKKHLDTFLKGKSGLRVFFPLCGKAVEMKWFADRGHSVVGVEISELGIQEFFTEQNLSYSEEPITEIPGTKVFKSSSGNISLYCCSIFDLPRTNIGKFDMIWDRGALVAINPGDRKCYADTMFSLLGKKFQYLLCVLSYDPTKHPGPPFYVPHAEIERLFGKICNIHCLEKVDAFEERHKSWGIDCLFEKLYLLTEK
The following applies: TPMT variant G644A, Arg215His; OMIM 187680.

Data set [2] has as its target T2, TPMT (thiopurine S-methyltransferase) (Homo sapiens, UniProt P51580, A80P).
T2 sequence (P51580 1-245 A80P): T1 sequence (P51580 1-245 R215H) with A80P, H215R
The following applies: TPMT variant G238C, Ala80Pro; OMIM 187680.

The target in data set [3] is T3, TPMT (thiopurine S-methyltransferase) (Homo sapiens, UniProt P51580, Y240C).
T3 sequence (P51580 1-245 Y240C): T1 sequence (P51580 1-245 R215H) with H215R, Y240C
The note with it: TPMT variant A719G, Tyr240Cys; OMIM 187680.

Data set [4] has as its target T4, TPMT (thiopurine S-methyltransferase) (Homo sapiens, UniProt P51580, A154T).
T4 sequence (P51580 1-245 A154T): T1 sequence (P51580 1-245 R215H) with A154T, H215R
The note with it: TPMT variant G460A, Ala154Thr; OMIM 187680.

A further data set deals with CYP2D6. The note with it: protein variant Gly169Ter; poor drug metabolizer; OMIM 124030.
The target in data set [5] is ABCB1 (MDR1, P-glycoprotein) (Homo sapiens, UniProt P08183, G185V).
Chain of ABCB1 (MDR1, P-glycoprotein) (P08183 whole entry G185V, canonical isoform): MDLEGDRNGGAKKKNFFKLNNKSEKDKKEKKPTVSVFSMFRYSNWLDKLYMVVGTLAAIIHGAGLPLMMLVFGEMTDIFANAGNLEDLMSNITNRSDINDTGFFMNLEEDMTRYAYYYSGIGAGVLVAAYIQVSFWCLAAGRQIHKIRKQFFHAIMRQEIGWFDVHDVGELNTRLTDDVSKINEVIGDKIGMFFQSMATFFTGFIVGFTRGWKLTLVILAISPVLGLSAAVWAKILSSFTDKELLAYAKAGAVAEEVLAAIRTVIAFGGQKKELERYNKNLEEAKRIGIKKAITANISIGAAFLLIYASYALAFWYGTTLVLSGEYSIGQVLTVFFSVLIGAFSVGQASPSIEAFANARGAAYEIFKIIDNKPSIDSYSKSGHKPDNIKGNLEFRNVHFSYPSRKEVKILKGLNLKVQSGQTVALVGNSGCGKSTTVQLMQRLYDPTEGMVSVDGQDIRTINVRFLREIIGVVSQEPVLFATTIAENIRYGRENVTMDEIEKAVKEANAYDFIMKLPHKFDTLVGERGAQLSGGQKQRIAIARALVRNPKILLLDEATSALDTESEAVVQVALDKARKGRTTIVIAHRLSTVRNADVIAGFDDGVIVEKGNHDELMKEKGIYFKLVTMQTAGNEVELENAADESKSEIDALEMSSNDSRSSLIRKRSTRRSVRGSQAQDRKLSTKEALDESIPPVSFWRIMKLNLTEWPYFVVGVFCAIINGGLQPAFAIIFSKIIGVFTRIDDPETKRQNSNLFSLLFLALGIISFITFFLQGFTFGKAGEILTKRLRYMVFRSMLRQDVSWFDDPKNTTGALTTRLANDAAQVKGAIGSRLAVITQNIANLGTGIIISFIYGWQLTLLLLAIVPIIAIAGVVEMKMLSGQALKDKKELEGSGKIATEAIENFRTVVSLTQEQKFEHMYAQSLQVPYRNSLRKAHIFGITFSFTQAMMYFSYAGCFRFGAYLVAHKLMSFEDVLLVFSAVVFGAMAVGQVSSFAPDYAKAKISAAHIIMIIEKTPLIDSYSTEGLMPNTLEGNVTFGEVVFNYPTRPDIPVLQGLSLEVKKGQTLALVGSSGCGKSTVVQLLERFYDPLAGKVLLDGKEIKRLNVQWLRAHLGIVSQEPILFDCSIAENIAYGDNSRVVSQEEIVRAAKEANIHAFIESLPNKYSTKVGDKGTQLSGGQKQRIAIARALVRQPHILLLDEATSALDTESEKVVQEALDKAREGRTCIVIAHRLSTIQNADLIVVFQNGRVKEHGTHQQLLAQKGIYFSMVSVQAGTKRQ
Data set [6] deals with beta tubulin (Isoform M40).

Each structure is given as a SMILES string. Where a chain is given by its changes, count along the chain named. Read-outs that look alike come from different tables or passages of the source.

In the case of `Sc1ncnc2nc[nH]c12` [6-mercaptopurine], the Phenotype result in data set [1], in data set [2], in data set [3] and in data set [4] was “sensitivity” each time.

With `N=C(N)N1CCc2ccccc2C1` [Debrisoquine], the Phenotype entry with CYP2D6 is reported as “Debrisoquine, poor”.

Turning to `COc1cc2c(c(OC)c1OC)-c1ccc(OC)c(=O)cc1[C@@H](NC(C)=O)CC2` [colchicine], the “Phenotype: colchicine resistance” value in data set [5] was “increased”.

Consider `CC(=O)O[C@H]1C(=O)[C@@]2(C)[C@H]([C@H](OC(=O)c3ccccc3)[C@]3(O)C[C@H](OC(=O)[C@H](O)[C@@H](NC(=O)c4ccccc4)c4ccccc4)C(C)=C1C3(C)C)[C@]1(OC(C)=O)CO[C@@H]1C[C@@H]2O` [paclitaxel], for which the “Phenotype (response to paclitaxel)” value in data set [6] (beta tubulin variant Ala364Thr (G1092A)) and in data set [6] (beta tubulin variant Phe270Val (T810G)) was “resistance” in each case.
